Tests used:
cockspar grass = assay: Experiment 1 foliar application to naturally growing weeds; format: in vivo, Echinochloa Crusgalli P. Beauv.; conditions: for Reproduction-inhibiting effect: 2 months
How it was run: (§1)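 Read-outs were a 0–5 killing index at 21 days and a reproduction score from (-), no reproduction, to (+++), no suppression. Reproduction was read at 2 months for cockspar grass and 4 months for the other species, after foliar spraying at 150 liter per 10 are with 0.1% surfactant.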

diatoms = assay: Experiment 7 application to water; format: in vivo, Bacillariophyta; design: scale not given here
Description: (§2) A black soil was packed in 50 cm. square concrete pots and water was poured there-onto at 50 cm. in depth. Hornwort (Ceratophyllum demersum L.), stonewort (Chara Braunii Gmel.) and salvinia (Salvinia natans All.) were transplanted and pond scum (Spirogira crassa Kutz) and diatoms (Bacillariophyta) were floated in the water.
(§3) Then, the compounds of the invention were applied dropwise onto the surface of the water so that the prescribed concentrations in the water are obtained as indicated in Table 9.

omodaka = assay: Experiment 6 spray on aquatic plants in concrete pots; format: in vivo, Sagittaria trifolia L.; conditions: for Reproduction-inhibiting effect: 3 months; for Killing index: 21 days
Description: (§4) The detail of the assessment made in the following Experiments of the invention was as follows:
(§5) Four months after treatment, evaluation was made for inhibition of reproduction expressed in terms of symbols ranging from (-) to (+++) where (-) means no reproduction, namely complete suppression of reproduction, (±) remarkable suppression of reproduction; (+) considerable suppression of reproduction; (++) medium supprestion of reproduction; and (+++) no suppression of reproduction.
(§6) A paddy field soil was packed in 50 cm. square concrete pots. omodaka (Sagittaria trifolia L.), urikawa (Sagittaria pygmaea Miq.), prog-bit (Hydrocharis dubia) and aginashi (Sagittaria Aginashi Makino) were transplanted; then water was poured onto the soil at 5 cm. depth.
(§7) Further, water hyacinth, greater-duckweed (Spirodela polyrhiza Schleid.) and duckweed (Lemna paucicostata Hegelm) were floated on the water.
(§8) After one month, the compounds of the invention diluted to the prescribed concentrations as indicated in Table 8 were sprayed in an amount of 100 liter per 10 are. As a surfactant, 0.1% of octylphenyl polyoxyethanol was added thereto.
(§9) The killing index (0, no effect; 5, death) after 21 days and 3 months and the reproduction-inhibiting effect (-, no reproduction; +++, maximum reproduction) after 3 months were determined.

lace shrub = assay: Experiment 3 foliar application to naturally growing shrubs; format: in vivo, Stephanandra incisa Zabel
How it was run: (§10)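 Compounds, diluted to prescribed concentrations with 0.1% octylphenyl polyoxyethanol as surfactant, were sprayed onto the foliage of naturally growing shrubs at 150 liter per 10 are. Kill was scored on a 0 (no effect) to 5 (death) index at 1 and 3 months. Regrowth was graded from − (no reproduction) to +++ (maximum) at 3 months.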

yamazakura = assay: as above; format: in vivo, Prunus donarium Sieb. var. spontanae Makino; conditions: after 3 months
How it was run: as §10

greaterduckweed = assay: Experiment 6 spray on aquatic plants in concrete pots; format: in vivo, Spirodela polyrhiza Sohleid.; conditions: for Reproduction-inhibiting effect: 3 months
Description: as §4, §5, §6, §7, §8, §9

white clover = assay: Experiment 1 foliar application to naturally growing weeds; format: in vivo, Trifolium repens L.; conditions: for Reproduction-inhibiting effect: 4 months
How it was run: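 Test compounds, diluted to prescribed concentrations with 0.1% octylphenyl polyoxyethanol surfactant, were sprayed onto foliage of naturally growing weeds at 150 liter per 10 are. Killing index (0, no effect; 5, death) was scored at 21 days. Reproduction was scored from (-), complete suppression, to (+++), none, at 2 months for cockspar grass and 4 months for the other weeds.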

oak = assay: Experiment 3 foliar application to naturally growing shrubs; format: in vivo, Quercus serrata Thunb; conditions: after 3 months
How it was run: as §10

eulalia = assay: Experiment 2 foliar application in Japanese cypress afforested land; format: in vivo, Miscanthus sinensis Andress.; design: key: 0 = no effect, 5 = death; conditions: after 3 months
How it was run: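 Field foliar spray on shrubs in Japanese cypress afforested land at 150 liter per 10 are, with compounds at prescribed concentrations. Killing index scored from 0 (no effect) to 5 (death) at 30 days and 3 months. Plant heights ranged from about 50 to 100 cm.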

stonewort = assay: Experiment 7 application to water; format: in vivo, Chara Braunii Gmel.; design: scale not given here
Description: as §2, §3

aginashi = assay: Experiment 6 spray on aquatic plants in concrete pots; format: in vivo, Sagittaria Aginashi Makino; conditions: 3 months
Description: as §4, §5, §6, §7, §8, §9

pond scum = assay: Experiment 7 application to water; format: in vivo, Spirogira crassa Kutz.; design: scale not given here
Description: as §2, §3

warunasubi = assay: Experiment 1 foliar application to naturally growing weeds; format: in vivo, Solanum carolinensis L.; conditions: for Reproduction-inhibiting effect: 4 months; for Killing index of Upperground parts: 21 days
How it was run: as §1

Japanese bush cranberry = assay: Experiment 3 foliar application to naturally growing shrubs; format: in vivo, Viburnum dilatatum Thunb.; conditions: after 3 months
How it was run: as §10

salvinia = assay: Experiment 7 application to water; format: in vivo, Salvinia natans Allioni; design: scale not given here
Description: as §2, §3

CP(=O)(O)CC[C@H](N)C(=O)O [L-AMPB choline, L-2-Amino-4-methylphosphino-butanoic acid choline]
Reproduction-inhibiting effect (cockspar grass; 0.05%): ± | Reproduction-inhibiting effect (cockspar grass; 0.1%): - | Reproduction-inhibiting effect (cockspar grass; 0.2%): - | controlling effect (diatoms; 1 ppm, 3 months): 4 | controlling effect (diatoms; 1 ppm, 21 days): 4 | controlling effect (diatoms; 3 ppm, 3 months): 5 | controlling effect (diatoms; 3 ppm, 21 days): 5 | controlling effect (diatoms; 10 ppm, 3 months): 5 | controlling effect (diatoms; 10 ppm, 21 days): 5 | Reproduction-inhibiting effect (omodaka; 0.05%): + | Reproduction-inhibiting effect (omodaka; 0.1%): - | Killing index (omodaka; 0.1%): 4.5 | Reproduction-inhibiting effect (omodaka; 0.2%): - | Killing index (lace shrub; 0.05%, after 3 months): 4.5 | Reproduction-inhibiting (lace shrub; 0.05%, after 3 months): ± | Killing index (lace shrub; 0.05%, after 30 days): 4.5 | Reproduction-inhibiting (lace shrub; 0.1%, after 3 months): - | Reproduction-inhibiting (lace shrub; 0.2%, after 3 months): - | Reproduction-inhibiting (yamazakura; 0.05%): - | Reproduction-inhibiting (yamazakura; 0.1%): - | Reproduction-inhibiting (yamazakura; 0.2%): - | Reproduction-inhibiting effect (greaterduckweed; 0.05%): - | Reproduction-inhibiting effect (greaterduckweed; 0.1%): - | Reproduction-inhibiting effect (greaterduckweed; 0.2%): - | Reproduction-inhibiting effect (white clover; 0.05%): ± | Reproduction-inhibiting effect (white clover; 0.1%): - | Reproduction-inhibiting effect (white clover; 0.2%): - | Reproduction-inhibiting (oak; 0.05%): - | Reproduction-inhibiting (oak; 0.1%): - | Reproduction-inhibiting (oak; 0.2%): - | Killing index (eulalia; 0.063%): 3.5 | controlling effect (stonewort; 1 ppm, 3 months): 5 | controlling effect (stonewort; 1 ppm, 21 days): 4 | controlling effect (stonewort; 3 ppm, 3 months): 5 | controlling effect (stonewort; 3 ppm, 21 days): 5 | controlling effect (stonewort; 10 ppm, 3 months): 5 | controlling effect (stonewort; 10 ppm, 21 days): 5 | Reproduction-inhibiting effect (aginashi; 0.05%): ± | Reproduction-inhibiting effect (aginashi; 0.1%): - | Reproduction-inhibiting effect (aginashi; 0.2%): - | controlling effect (pond scum; 1 ppm, 3 months): 4 | controlling effect (pond scum; 1 ppm, 21 days): 4 | controlling effect (pond scum; 3 ppm, 3 months): 5 | controlling effect (pond scum; 3 ppm, 21 days): 5 | controlling effect (pond scum; 10 ppm, 3 months): 5 | controlling effect (pond scum; 10 ppm, 21 days): 5 | Reproduction-inhibiting effect (warunasubi; 0.05%): ± | Reproduction-inhibiting effect (warunasubi; 0.1%): - | Reproduction-inhibiting effect (warunasubi; 0.2%): - | Reproduction-inhibiting (Japanese bush cranberry; 0.05%): + | Reproduction-inhibiting (Japanese bush cranberry; 0.1%): - | Reproduction-inhibiting (Japanese bush cranberry; 0.2%): - | controlling effect (salvinia; 1 ppm, 3 months): 5 | controlling effect (salvinia; 1 ppm, 21 days): 4 | controlling effect (salvinia; 3 ppm, 3 months): 5 | controlling effect (salvinia; 3 ppm, 21 days): 5 | controlling effect (salvinia; 10 ppm, 3 months): 5 | controlling effect (salvinia; 10 ppm, 21 days): 5

C[C@H](NC(=O)[C@H](C)NC(=O)[C@@H](N)CCP(C)(=O)O)C(=O)O [SF-1293 choline, (L-2-Amino-4-methylphosphinobutyryl)-L-alanyl-L-alanine choline]
Reproduction-inhibiting effect (cockspar grass; 0.05%): + | Reproduction-inhibiting effect (cockspar grass; 0.1%): ± | Killing index of Upperground parts (cockspar grass; 0.1%, 21 days): 4.5 | Reproduction-inhibiting effect (cockspar grass; 0.2%): - | controlling effect (diatoms; 1 ppm, 3 months): 1 | controlling effect (diatoms; 1 ppm, 21 days): 2 | controlling effect (diatoms; 3 ppm, 3 months): 5 | controlling effect (diatoms; 3 ppm, 21 days): 3 | controlling effect (diatoms; 10 ppm, 3 months): 5 | controlling effect (diatoms; 10 ppm, 21 days): 5 | Reproduction-inhibiting effect (omodaka; 0.05%): ++ | Reproduction-inhibiting effect (omodaka; 0.1%): ± | Reproduction-inhibiting effect (omodaka; 0.2%): - | Reproduction-inhibiting (lace shrub; 0.05%, after 3 months): ++ | Reproduction-inhibiting (lace shrub; 0.1%, after 3 months): - | Reproduction-inhibiting (lace shrub; 0.2%, after 3 months): - | Reproduction-inhibiting (yamazakura; 0.05%): ++ | Reproduction-inhibiting (yamazakura; 0.1%): - | Reproduction-inhibiting (yamazakura; 0.2%): - | Reproduction-inhibiting effect (greaterduckweed; 0.05%): + | Reproduction-inhibiting effect (greaterduckweed; 0.1%): - | Killing index (greaterduckweed; 0.1%, 21 days): 4.5 | Reproduction-inhibiting effect (greaterduckweed; 0.2%): - | Reproduction-inhibiting effect (white clover; 0.05%): + | Reproduction-inhibiting effect (white clover; 0.1%): - | Reproduction-inhibiting effect (white clover; 0.2%): - | Reproduction-inhibiting (oak; 0.05%): ++ | Reproduction-inhibiting (oak; 0.1%): - | Reproduction-inhibiting (oak; 0.2%): - | Killing index (eulalia; 0.125%): 4.5 | controlling effect (stonewort; 1 ppm, 3 months): 2 | controlling effect (stonewort; 1 ppm, 21 days): 3 | controlling effect (stonewort; 3 ppm, 3 months): 5 | controlling effect (stonewort; 3 ppm, 21 days): 4 | controlling effect (stonewort; 10 ppm, 3 months): 5 | controlling effect (stonewort; 10 ppm, 21 days): 5 | Reproduction-inhibiting effect (aginashi; 0.05%): ++ | Reproduction-inhibiting effect (aginashi; 0.1%): ± | Reproduction-inhibiting effect (aginashi; 0.2%): - | controlling effect (pond scum; 1 ppm, 3 months): 1 | controlling effect (pond scum; 1 ppm, 21 days): 2 | controlling effect (pond scum; 3 ppm, 3 months): 5 | controlling effect (pond scum; 3 ppm, 21 days): 3.5 | controlling effect (pond scum; 10 ppm, 3 months): 5 | controlling effect (pond scum; 10 ppm, 21 days): 5 | Reproduction-inhibiting effect (warunasubi; 0.05%): ++ | Killing index of Upperground parts (warunasubi; 0.05%): 3.5 | Reproduction-inhibiting effect (warunasubi; 0.1%): ± | Reproduction-inhibiting effect (warunasubi; 0.2%): - | Reproduction-inhibiting (Japanese bush cranberry; 0.05%): ++ | Reproduction-inhibiting (Japanese bush cranberry; 0.1%): - | Reproduction-inhibiting (Japanese bush cranberry; 0.2%): - | controlling effect (salvinia; 1 ppm, 3 months): 3 | controlling effect (salvinia; 1 ppm, 21 days): 3.5 | controlling effect (salvinia; 3 ppm, 3 months): 5 | controlling effect (salvinia; 3 ppm, 21 days): 4.5 | controlling effect (salvinia; 10 ppm, 3 months): 5 | controlling effect (salvinia; 10 ppm, 21 days): 5

CP(=O)(O)CCC(N)C(=O)O (racemic) [DL-AMPB choline]
Reproduction-inhibiting effect (cockspar grass; 0.05%): ++ | Reproduction-inhibiting effect (cockspar grass; 0.1%): ± | Reproduction-inhibiting effect (cockspar grass; 0.2%): - | controlling effect (diatoms; 1 ppm, 3 months): 1 | controlling effect (diatoms; 1 ppm, 21 days): 3 | controlling effect (diatoms; 3 ppm, 3 months): 5 | controlling effect (diatoms; 3 ppm, 21 days): 4 | controlling effect (diatoms; 10 ppm, 3 months): 5 | controlling effect (diatoms; 10 ppm, 21 days): 5 | Reproduction-inhibiting effect (omodaka; 0.05%): ++ | Reproduction-inhibiting effect (omodaka; 0.1%): ± | Reproduction-inhibiting effect (omodaka; 0.2%): - | Killing index (omodaka; 0.2%): 4.5 | Reproduction-inhibiting (lace shrub; 0.05%, after 3 months): ++ | Reproduction-inhibiting (lace shrub; 0.1%, after 3 months): - | Reproduction-inhibiting (lace shrub; 0.2%, after 3 months): - | Reproduction-inhibiting (yamazakura; 0.05%): ++ | Reproduction-inhibiting (yamazakura; 0.1%): - | Reproduction-inhibiting (yamazakura; 0.2%): - | Reproduction-inhibiting effect (greaterduckweed; 0.05%): + | Reproduction-inhibiting effect (greaterduckweed; 0.1%): - | Reproduction-inhibiting effect (greaterduckweed; 0.2%): - | Reproduction-inhibiting effect (white clover; 0.05%): ++ | Killing index of Upperground parts (white clover; 0.05%, 21 days): 1.5 | Reproduction-inhibiting effect (white clover; 0.1%): ± | Reproduction-inhibiting effect (white clover; 0.2%): - | Reproduction-inhibiting (oak; 0.05%): ++ | Reproduction-inhibiting (oak; 0.1%): - | Reproduction-inhibiting (oak; 0.2%): - | Killing index (eulalia; 0.125%): 4.5 | controlling effect (stonewort; 1 ppm, 3 months): 1 | controlling effect (stonewort; 1 ppm, 21 days): 3 | controlling effect (stonewort; 3 ppm, 3 months): 5 | controlling effect (stonewort; 3 ppm, 21 days): 4.5 | controlling effect (stonewort; 10 ppm, 3 months): 5 | controlling effect (stonewort; 10 ppm, 21 days): 5 | Reproduction-inhibiting effect (aginashi; 0.05%): ++ | Reproduction-inhibiting effect (aginashi; 0.1%): ± | Reproduction-inhibiting effect (aginashi; 0.2%): - | controlling effect (pond scum; 1 ppm, 3 months): 1 | controlling effect (pond scum; 1 ppm, 21 days): 2 | controlling effect (pond scum; 3 ppm, 3 months): 5 | controlling effect (pond scum; 3 ppm, 21 days): 4 | controlling effect (pond scum; 10 ppm, 3 months): 5 | controlling effect (pond scum; 10 ppm, 21 days): 5 | Reproduction-inhibiting effect (warunasubi; 0.05%): ++ | Reproduction-inhibiting effect (warunasubi; 0.1%): ± | Killing index of Upperground parts (warunasubi; 0.1%): 4.5 | Reproduction-inhibiting effect (warunasubi; 0.2%): - | Reproduction-inhibiting (Japanese bush cranberry; 0.05%): +++ | Reproduction-inhibiting (Japanese bush cranberry; 0.1%): ++ | Reproduction-inhibiting (Japanese bush cranberry; 0.2%): + | controlling effect (salvinia; 1 ppm, 3 months): 2 | controlling effect (salvinia; 1 ppm, 21 days): 3 | controlling effect (salvinia; 3 ppm, 3 months): 5 | controlling effect (salvinia; 3 ppm, 21 days): 4 | controlling effect (salvinia; 10 ppm, 3 months): 5 | controlling effect (salvinia; 10 ppm, 21 days): 5

Reference: patent publication US4226610A, “Herbicidal compounds, preparation thereof and herbicides containing the same” (Meiji Selka Kaisha, Ltd., priority 1978, dated 1980)
